Experimental data taken from article PMC8300937, “New azolyl-derivatives as multitargeting agents against breast cancer and fungal infections: synthesis, biological evaluation and docking study” (Journal of Enzyme Inhibition and Medicinal Chemistry, 2021).
Converted amounts (≈) assume the structure as drawn. Like-named read-outs stand apart in the source and are kept apart here.

Assays:
hCYP19A1 = target: hCYP19A1; set-up: method as in PMID 26481362; conditions: cocrystallized ligand of hCYP19A1; cited from earlier work
[1] = tested on: C. albicans clinical isolates; test: Antifungal broth microdilution (EUCAST), C. albicans clinical isolates; format: cell-based; conditions: Candida albicans
Protocol: (§1) The antifungal activity of the most representative compounds was evaluated versus one ATCC 90028 strain and 15 clinical isolates belonging to the most clinically relevant Candida spp. (C. albicans, C. tropicalis, and C. glabrata). All strains were stored at −80 °C in Sabouraud Broth (Oxoid LTD, Basingstoke, Hampshire, England) with 20% of glycerine until their use. The strains were grown on Sabouraud CAF agar (Thermo Fisher Scientific Waltham, MA, USA), and incubated for 24–48 h at 37 °C. […] The in vitro antifungal activity was determined by broth microdilution method with RPMI 1640 (Sigma-Aldrich. ST Louis, MO, USA) as recommended by EUCAST, and the E. Def 7.3, method document (http://www.eucast.org). […] Each plate included the following controls: (i) inoculum suspension (growth control), (ii) drug-free medium, (iii) medium with drug, and (iv) distilled water (used for the inoculum preparation). Fluconazole was used as a reference drug according to the EUCAST guidelines. The plates were incubated for 24 h at 37 °C, and then read with a plate reader at 530 nm. […] Three independent experiments were performed in triplicate.

MCF-7 cell line = test: Cytotoxicity test (lactate dehydrogenase release); format: cell-based, human; conditions: MCF-7, 24 h, 10 µM (lowest concentration tested); DMSO control set as 1
Protocol: (§2) Human breast cancer MCF-7 (HTB-22™) cells were purchased from ATCC® and maintained in Dulbecco’s Modified Eagle Medium (DMEM) high glucose supplemented with 10% of foetal bovine serum (FBS) and 1% of penicillin/streptomycin (all from Gibco-Thermofisher Scientific, MD, USA) at 37 °C and 5% CO2.
After 24 h, cell supernatants were collected from the MTT plate, centrifuged at 450 × g for 4 min and stored on ice. To quantify the cytotoxicity of loading concentrations of compounds 2, 5 and 6 (0–400 µM), the CytoTox 96® Non-Radioactive Cytotoxicity Assay (Promega Corporation, WI, USA) was performed. The CytoTox 96® Assay quantitatively measures lactate dehydrogenase (LDH), a stable cytosolic enzyme released upon cell lysis. The absorbance signal resulting from the conversion of a tetrazolium salt (iodonitrotetrazolium violet; INT) into a red formazan product was measured at 490 and 690 nm (background) with a spectrophotometer (Multiskan GO, Thermo Scientific, Monza, Italy). The results were normalised on MTT absorbances and expressed as fold increases on the LDH released by cultures in the presence of vehicle (DMSO) set as 1.

[2] = tested on: C. glabrata clinical isolates; test: Antifungal broth microdilution (EUCAST), C. glabrata clinical isolates; format: cell-based, Candida glabrata
Protocol: as §1

[3] = tested on: MCF-7 breast cancer cell line; test: Cell metabolic activity (MTT assay); format: cell-based; conditions: Homo sapiens, MCF7; MCF-7, 24 h exposure; read-out: IC50 cell metabolic activity (MTT)
Protocol: as §2
Cell metabolic activity of MCF-7 human breast cancer cells was assessed by MTT (3–(4,5-dimethylthiazol-2-yl)-2,5-diphenyltetrazolium bromide) test (Sigma Aldrich, Milan, Italy). Cells were seeded (0.1 × 10^4/well) in a 96-well tissue culture-treated plate (Falcon®, Corning Incorporated, NY, USA) and let them adhere for 24 h. Next, the cell monolayer was incubated in the presence of loading concentrations of compounds 2, 5 and 6 (0–400 µM) diluted in DMSO (final concentration 0.2%) for 24, 48 and 72 h. After the exposure time, cells were incubated with 100 μL/well of MTT (5 mg/mL) 1:10 with fresh growth medium (final concentration 0.5 mg/mL) for 4 h at 37 °C and 5% CO2. Finally, the MTT solution was removed and replaced with 100 µL/well of DMSO. Cells were incubated for an additional 20 min at 37 °C and 5% CO2 and afterward gently swirled for 10 min at room temperature. The optical density was measured at 540 nm by means of a spectrophotometer (Multiskan GO, Thermo Scientific, Monza, Italy). Results were expressed as the percentage of cells in the presence of vehicle (DMSO) set as 100% and each experiment was performed in triplicate (n = 3). Concentration-response curves and IC50 were fitted and calculated with the GraphPad Prism 5.0 (GraphPad Software, San Diego, CA, USA)[27].

C. albicans ATCC 90028 = test: Antifungal broth microdilution (EUCAST), standard strain; format: cell-based; conditions: Candida albicans, ATCC90028; C. albicans ATCC 90028; 24 h, ≥50% growth inhibition; read-out: MIC
Protocol: as §1

[4] = tested on: C. tropicalis clinical isolates; test: Antifungal broth microdilution (EUCAST), C. tropicalis clinical isolates; format: cell-based, Candida tropicalis
Protocol: as §1

Recombinant human iNOS = target: T1, Recombinant human iNOS (Homo sapiens, UniProt P35228); test: iNOS inhibition, L-citrulline assay with fluorimetric (HPLC) detection; format: biochemical; conditions: read-out: iNOS % inhibition
T1 construct: purchased Enzo Life Sciences, Inc
Protocol: The injection volume was 5 μL.
Recombinant human iNOS was purchased from Enzo Life Sciences, Inc. (New York, USA).

[5] = Chemical stability in aqueous media at 37 °C (HPLC); format: physicochemical
Protocol: Compounds 2 and 5 contain an ester linkage, therefore their chemical stability was evaluated. Phosphate buffer (pH = 7.4), HCl solution (pH = 2.0), NaOH solution (pH = 9.0) were adopted as media. […] Solutions were kept at 37 °C and monitored for 24 h.
A 0.01 M hydrochloric acid buffer (pH 2), as a non-enzymatic simulated gastric fluid (SGF), a 0.01 M phosphate buffer (pH 7.4) as non-enzymatic simulated intestinal fluid (SIF), and a 0.1 mM sodium hydroxide solution (pH 10) were used in this study. The reactions were initiated by adding 0.1 ml of compound stock solution (1 mg/mL in DMSO) to 1.9 ml aqueous buffer solution, in screw-capped vials at 37 ± 0.5 °C. Samples (5 µL) were withdrawn at appropriate intervals, i.e. after 5 min, 1 h, 2 h, 3 h, 4 h, 6 h, 8 h, and then after 24 h incubation time and analysed by HPLC.

aromatase (CYP19A) = target: T2, aromatase (CYP19A) (Homo sapiens, UniProt P11511); test: Aromatase inhibition, fluorimetric assay kit (Aromatase-CYP19A Inhibitor Screening kit, BioVision); format: biochemical; conditions: read-out: Aromatase % inhibition
T2 construct: purchased BioVision
T2 sequence (P11511 1-503): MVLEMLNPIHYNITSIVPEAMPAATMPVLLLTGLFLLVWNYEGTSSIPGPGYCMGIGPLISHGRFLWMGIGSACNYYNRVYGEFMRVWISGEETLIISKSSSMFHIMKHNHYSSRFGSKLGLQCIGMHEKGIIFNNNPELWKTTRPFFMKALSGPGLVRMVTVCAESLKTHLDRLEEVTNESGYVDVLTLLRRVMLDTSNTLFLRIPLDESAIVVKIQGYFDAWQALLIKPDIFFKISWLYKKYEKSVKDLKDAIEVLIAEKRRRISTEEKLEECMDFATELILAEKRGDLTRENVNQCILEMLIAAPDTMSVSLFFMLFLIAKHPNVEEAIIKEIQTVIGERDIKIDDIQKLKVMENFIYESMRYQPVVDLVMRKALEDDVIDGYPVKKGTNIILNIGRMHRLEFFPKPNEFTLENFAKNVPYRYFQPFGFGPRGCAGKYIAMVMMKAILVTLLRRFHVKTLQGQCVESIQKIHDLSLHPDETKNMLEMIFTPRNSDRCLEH
Protocol: The aromatase inhibitory activity of the novel compounds was determined using a commercial fluorimetric kit (Aromatase CYP19A Inhibitor Screening kit, BioVision, Milpitas, CA, USA). The assay utilises a fluorogenic aromatase substrate, that is converted into a highly fluorescent metabolite detected in the visible range (Ex/Em = 488/527 nm), ensuring a high signal-to-background ratio with little interference by autofluorescence.

aromatase = conditions: at 1 µM; cited from earlier work
iNOS = target: iNOS; set-up: method as in PMID 26481362; conditions: cocrystallized ligand of iNOS; cited from earlier work

## C[C@]12CCC(=O)C=C1CC[C@@H]1[C@@H]2CC[C@]2(C)C(=O)CC[C@@H]12 [4-androstene-3,17-dione]
hCYP19A1
  Ki: 20 nM

## O=C(OC(Cc1ccccc1)Cn1ccnc1)c1ccccc1 (stereo not drawn) [Compound 2, 1-benzyl-2-(1H-imidazol-1-yl)ethyl benzoate]
other
  melting point: 68 to 69 °C
[1]; C. albicans 78/5
  MIC: 16 µg/mL (≈ 52.2 µM)
[1]; C. albicans 231/5
  MIC: 16 µg/mL (≈ 52.2 µM)
[1]; C. albicans 308/4
  MIC: 64 µg/mL (≈ 209 µM)
[1]; C. albicans 510/5
  MIC: 16 µg/mL (≈ 52.2 µM)
[1]; C. albicans 688/5
  MIC: 32 µg/mL (≈ 104 µM)
[1]; C. albicans 712/5
  MIC: 32 µg/mL (≈ 104 µM)
[1]; C. albicans 887/5
  MIC: 16 µg/mL (≈ 52.2 µM)
[1]; C. albicans 943/5
  MIC: 16 µg/mL (≈ 52.2 µM)
[1]; C. albicans 1009/40
  MIC: 16 µg/mL (≈ 52.2 µM)
[1]; C. albicans SF1
  MIC: 16 µg/mL (≈ 52.2 µM)
MCF-7 cell line
  LDH released, fold increase vs control: 1.44 folds
[2]; C. glabrata 311/5
  MIC: >64 µg/mL
[2]; C. glabrata 495/5
  MIC: >64 µg/mL
[2]; Nakaseomyces glabratus, C. glabrata 365/5, read-out: MIC
  MIC: > 64 µg/mL
[3]
  IC50: > 200000 nM
C. albicans ATCC 90028
  MIC: 16 µg/mL (≈ 52.2 µM)
[4]; C. tropicalis 295/5
  MIC: 64 µg/mL (≈ 209 µM)
[4]; Candida tropicalis, C. tropicalis 74/5, read-out: MIC
  MIC: 64 µg/mL (≈ 209 µM)
Recombinant human iNOS
  inhibition at 1 µM: 100 ± 2.6%
[5]; HCl solution pH = 2.0, 37 °C, monitored for 24 h
  Chemical stability in acidic medium: stable
[5]; Phosphate buffer pH = 7.4, 37 °C, monitored for 24 h
  Chemical stability in neutral medium: stable
[5]; aqueous NaOH solution, NaOH solution pH = 9.0, 37 °C, read-out: half-life of hydrolysis in basic medium
  half-life at 0.05 mg/mL: 48 min
Aromatase (CYP19A)
  inhibition at 1 µM: 77 ± 1.8%

## O=C(NCc1ccccc1)OC(Cn1ccnc1)c1ccccc1 (stereo not drawn) [Compound 13a]
aromatase
  aromatase % inhibition: 81%

## CCSC(=N)N [ethylisothiourea]
iNOS
  Ki: 5 nM
